We go through 4 molecules from patent US5559103A, “Bivalent sialyl X saccharides” (Cytel Corporation, priority 1994, dated 1996).

Several values for one entry are separate records, joined by “and”; a condition that tells them apart may be missing. Equal values may be shown once.

The target of assay [1] is T1, recombinant soluble E-selectin (Homo sapiens, UniProt P16581).
T1 construct: The 3'-amplimer inserted the termination codon TGA after amino acid number 527 of the mature E-selectin; made in house
T1 sequence (P16581 22-548 limits assumed): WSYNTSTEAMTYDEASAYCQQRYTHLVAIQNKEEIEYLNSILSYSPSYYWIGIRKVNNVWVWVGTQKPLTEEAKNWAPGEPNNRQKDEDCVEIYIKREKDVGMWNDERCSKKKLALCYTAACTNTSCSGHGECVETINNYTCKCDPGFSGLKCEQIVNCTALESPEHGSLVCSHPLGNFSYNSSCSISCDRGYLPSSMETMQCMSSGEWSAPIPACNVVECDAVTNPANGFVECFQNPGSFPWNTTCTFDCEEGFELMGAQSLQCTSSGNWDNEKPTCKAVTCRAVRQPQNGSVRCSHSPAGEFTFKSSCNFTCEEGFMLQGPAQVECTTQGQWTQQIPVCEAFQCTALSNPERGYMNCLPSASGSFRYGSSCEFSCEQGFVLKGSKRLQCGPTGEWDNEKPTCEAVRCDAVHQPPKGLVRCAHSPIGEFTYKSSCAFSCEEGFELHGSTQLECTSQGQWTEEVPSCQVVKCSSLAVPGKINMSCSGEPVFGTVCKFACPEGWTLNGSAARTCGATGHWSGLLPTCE
In words: Recombinant soluble E-selectin/HL-60 cell adhesion assay. It counts as cell-based. To be noted: for Ratio (50 percent binding value for the standard Compound Z divided by the 50 percent binding value for the assayed sample) / IC50 value ratio of SLe^x to that of the compound: E-Selectin Cell Adhesion Assay, HL-60 cells; for Ratio (50 percent binding value for the standard Compound Z divided by the 50 percent binding value for the assayed sample): relative to Compound Z; for IC50 value ratio of SLe^x to that of the compound: relative to SLe^x (Table 1 value divided by 0.76); for inhibition of HL-60 cell adhesion to recombinant soluble E-selectin-coated plates, activity order: FIG. 1, range of inhibitor concentrations (mM). On the procedure: A modified recombinant soluble E-selectin/HL-60 cell adhesion assay was developed to provide a simple and highly reproducible method with which to compare the E-selectin blocking potential of a bivalent SLe^x saccharide compound. In this assay, recombinant soluble E-selectin (rELAM) is bound to the plastic surface of a 96 well ELISA plate. Dilutions of bivalent SLe^x saccharide compounds to be assayed are added to the wells followed by HL-60 cells which bear the ligand for E-selectin. The cells are allowed to adhere to the E-selectin coated assay plate and the nonadherent cells are removed by washing the plate with an automated plate washer. Bound cells are quantitated by measuring the cellular enzyme myeloperoxidase. The molar concentration of assayed bivalent SLe^x saccharide required to achieve 50 percent inhibition of control adhesion such as that inhibited by free SLe^x or an analog is used to compare the contemplated analogs for potency.
rELAM (recombinant modified ELAM-1) affinity purified, prepared as follows below. Each batch of rELAM was tested functionally to determine the appropriate concentration for use in the assay. A batch was titrated over a range of 1-5 μg/mL using inhibition by Compound Z (described hereinafter) as the standard. Small aliquots were then prepared, quick frozen in a dry-ice acetone bath and stored at -70° C. Each aliquot was opened only one time and then discarded or saved for use in other types of assays.
The soluble form of E-selectin (rELAM or sol-E-selectin) used here was engineered by deleting the transmembrane domain from the cDNA. This recombinant cDNA was cloned into a mammalian expression vector pCDNA1 [a derivative of pCDM8; Seed, Nature, 329:840 (1987)] that contains the chimeric cytomegalovirus/human immunodeficiency virus promoter. When introduced into the adenovirus-transformed human kidney cell line 293, expression of the CMV promoter is efficiently activated by the E1 gene products by a mechanism that has not been fully delineated. The pCDNA1-sol-E-selectin construction was introduced, via calcium phosphate-mediated gene transfer, into 293 cells and a stable cell line expressing high levels of sol-E-selectin was generated. The sol-E-selectinproduced by these cells was purified by immunoaffinity chromatograph on an anti-E-selectin monoclonal antibody Protein-A Sepharose column.
A 1.67 Kbp DNA fragment encoding a truncated structural gene for E-selectin was isolated by polymerase chain reaction (PCR) amplification of cDNA derived from messenger RNA that was isolated from IL-1-activated human endothelial cells. The 5'-amplimer inserted a unique ClaI restriction site 28 nucleotides upstream from the initiation codon of the E-selectin structural gene. The 3'-amplimer inserted the termination codon TGA after amino acid number 527 of the mature E-selectin, followed by a unique XhoI restriction site. The carboxy-terminus of sol-E-selectin is located at the carboxy terminus of the sixth consensus repeat element, thereby deleting the transmembrane domain. The 1.67 Kbp PCR fragment was codigested with ClaI and XhoI restriction endonucleases and sub-cloned into the ClaI and XhoI restriction sites of the cloning vector pBluescript II, providing vector pBS11-sol-E-selectin. Expressed soluble-E-selectin is 527 amino acid residues in length and contains 11 potential N-glycosylation sites.
1. Assays were carried out in 96-well Immunolan 2 plates (Dynatech Laboratories, Inc., Chantilly, Va. catalog #011-0103655). The rELAM (sol-E-selectin) was diluted to the appropriate concentration for the current batch. For these assays, rELAM was used at 2.5 or 3.0 μg/mL in DPBS; with well coating being carried out at room temperature. Using a multichannel pipette, 50μl per well were added to the following wells of one ELISA plate: E1-E6, F1-F6, and G1-G6. DPBS (50μl ) was added to wells H1, H2, and H3 for use as controls. This plate is referred to as the pretest plate. […]

A further assay deals with lung injury in rats. To be noted: Mulligan et al., cited from earlier work.
The next assay has as its system E-selectin. Conditions: monomeric; Nelson et al.; cited from earlier work.
For another assay, the system named is P-selectin. To be noted: monomeric; Nelson et al.; cited from earlier work.
Where [2] appears, read: infusion, cobra venom-infused rats.

On to `COC(=O)CCCCCO[C@@H]1O[C@H](CO[C@@H]2O[C@H](CO)[C@@H](O[C@@H]3O[C@H](CO)[C@H](O)[C@H](O[C@]4(C(=O)O)C[C@H](O)[C@@H](NC(C)=O)[C@H]([C@H](O)[C@H](O)CO)O4)[C@H]3O)[C@H](O[C@@H]3O[C@@H](C)[C@@H](O)[C@@H](O)[C@@H]3O)[C@H]2NC(C)=O)[C@H](O)[C@H](O)[C@H]1O[C@@H]1O[C@H](CO)[C@@H](O[C@@H]2O[C@H](CO)[C@H](O)[C@H](O[C@]3(C(=O)O)C[C@H](O)[C@@H](NC(C)=O)[C@H]([C@H](O)[C@H](O)CO)O3)[C@H]2O)[C@H](O[C@@H]2O[C@@H](C)[C@@H](O)[C@@H](O)[C@@H]2O)[C@H]1NC(C)=O` [Compound 20, 5-Methoxycarbonylpentyl 2,6-bis-O-[(5-acetamido-3,5-dideoxy-α-D-glycero-D-galacto-2-nonulo-pyranosylonic acid)-yl-(2→3)-β-D-galactopyranosyl-(1→4)-(α-L-fucopyranosyl-(1→3))-2-acetamido-2-deoxy-β-D-glucopyranosyl]-β-D-galactopyranoside], for which, in assay [1], the “Ratio (50 percent binding value for the standard Compound Z divided by the 50 percent binding value for the assayed sample)” value stood at 2.67 and the “IC50 value ratio of SLe^x to that of the compound” value is reported as “about 3.5”.
As for `COC(=O)CCCCCO[C@@H]1O[C@H](CO[C@@H]2O[C@H](CO)[C@@H](O[C@@H]3O[C@H](CO)[C@H](O)[C@H](O[C@]4(C(=O)O)C[C@H](O)[C@@H](NC(C)=O)[C@H]([C@H](O)[C@H](O)CO)O4)[C@H]3O)[C@H](O[C@@H]3O[C@@H](C)[C@@H](O)[C@@H](O)[C@@H]3O)[C@H]2NC(C)=O)[C@H](O[C@@H]2O[C@H](CO)[C@@H](O[C@@H]3O[C@H](CO)[C@H](O)[C@H](O[C@]4(C(=O)O)C[C@H](O)[C@@H](NC(C)=O)[C@H]([C@H](O)[C@H](O)CO)O4)[C@H]3O)[C@H](O[C@@H]3O[C@@H](C)[C@@H](O)[C@@H](O)[C@@H]3O)[C@H]2NC(C)=O)[C@H](O)[C@H]1O` [Compound 21, 5-Methoxycarbonylpentyl 4,6-bis-O-[(5-acetamido-3,5-dideoxy-α-D-glycero-D-galacto-2-nonulo-pyranosylonic acid)-yl-(2→3)-β-D-galactopyranosyl-(1→4)-(α-L-fucopyranosyl-(1→3))-2-acetamido-2-deoxy-β-D-glucopyranosyl]-β-D-galactopyranoside], in assay [1], the “Ratio (50 percent binding value for the standard Compound Z divided by the 50 percent binding value for the assayed sample)” value was determined as 1.67 and the “inhibition of HL-60 cell adhesion to recombinant soluble E-selectin-coated plates, activity order” value is “more active than Compound 20”.
For the molecule `CC(=O)N[C@H]1[C@H]([C@H](O)[C@H](O)CO)O[C@@](O[C@H]2[C@@H](O)[C@@H](CO)O[C@@H](O[C@H]3[C@H](O[C@@H]4O[C@@H](C)[C@@H](O)[C@@H](O)[C@@H]4O)[C@@H](NC(C)=O)C(O)O[C@@H]3CO)[C@@H]2O)(C(=O)O)C[C@@H]1O` (stereo partly shown) [SLe^x, NeuAcα2→3βGalβ1→4(Fucα1→3)GlcNAc], the “Ratio (50 percent binding value for the standard Compound Z divided by the 50 percent binding value for the assayed sample)” value in assay [1] is on record as 0.76. In the assay on lung injury in rats (setting [2]), the accumulation of neutrophils entry is “reduced accumulation of neutrophils” and the lung injury result is on record as “reduced lung injury”. Moreover, the IC50 in the assay on lung injury in rats (protection against lung injury in rats, read-out: in vivo IC50 value) is approximately 1 µM. For the same molecule, the “binding to E-selectin” value in the assay with E-selectin is given as “binds weakly”. Also, the “binding to P-selectin” value in the assay with P-selectin is “binds weakly”.
As for `CCO[C@@H]1O[C@H](CO[C@@H]2O[C@H](CO)[C@@H](O[C@@H]3O[C@H](CO)[C@H](O)[C@H](O[C@]4(C(=O)O)C[C@H](O)[C@@H](NC(C)=O)[C@H]([C@H](O)[C@H](O)CO)O4)[C@H]3O)[C@H](O[C@@H]3O[C@@H](C)[C@@H](O)[C@@H](O)[C@@H]3O)[C@H]2NC(C)=O)[C@H](O)[C@H](O[C@@H]2O[C@H](CO)[C@@H](O[C@@H]3O[C@H](CO)[C@H](O)[C@H](O[C@]4(C(=O)O)C[C@H](O)[C@@H](NC(C)=O)[C@H]([C@H](O)[C@H](O)CO)O4)[C@H]3O)[C@H](O[C@@H]3O[C@@H](C)[C@@H](O)[C@@H](O)[C@@H]3O)[C@H]2NC(C)=O)[C@H]1O` [Compound 1, Ethyl 3,6-bis-O-[(ammonium 5-acetamido-3,5-dideoxy-α-D-glycero-D-galacto-2-nonulo-pyranosylonate)-(2→3)-β-D-galactopyranosyl-(1→4)-(α-L-fucopyranosyl-(1→3))-2-acetamido-2-deoxy-β-D-glucopyranosyl]-β-D-galactopyranoside], in assay [1], the “Ratio (50 percent binding value for the standard Compound Z divided by the 50 percent binding value for the assayed sample)” value was 3.8 and 2.67; the “IC50 value ratio of SLe^x to that of the compound” value was 3.5-5; the “inhibition of HL-60 cell adhesion to recombinant soluble E-selectin-coated plates, activity order” value is “the most active”.

In general, IC50 refers to the concentration needed to halve the response being measured.
